In patent US12600742B2, “Markers, conjugates, compositions and methods for hypoxia imaging, mapping, and therapy” (WWIKY BIOSCIENCES INC., priority 2017, dated 2026):

Tests used:
[1] = tested on: FaDu cells; experiment: Comparison of hypoxia selective uptake of ACN and Pimonidazole in vitro; type: cell-based, human
Experimental: FaDu cells were grown on coverslips (as described above) and treated simultaneously with 100 μM ACN and 100 μM Pimonidazole. The cells were subsequently exposed to normoxic (20% Oxygen), hypoxic (1% Oxygen) or anoxic (0% Oxygen) conditions for 6 hours, and fixed in 2% PFA. Standard Pimonidazole IHC was performed as described elsewhere using an Alexafluor 647 labelled secondary antibody. Click chemistry was performed as previously described using an Alexafluor 555 conjugated alkyne followed by nuclear staining with Hoechst. Mounted coverslips on glass slides were imaged as described earlier.

[2] = tested on: FaDu xenograft tumors; experiment: Assessment of ACN as a hypoxia tracer in tumor-bearing mice; type: in vivo, BALB/c nude mice; settings: 80 mg/Kg intraperitoneally, 2 hours post-injection
Experimental: Female BALB/c nude mice (Charles River Laboratories) aged 6 weeks were used and cared for according to the CCAC guidelines. We used a biflanked sub-cutaneous tumor model where the tumor in the left flank was untreated (control) and the tumor in the right flank served as the ‘treatment’ group. We subcutaneously injected 6×10^6 FaDu cells in 0.1 ml of sterile 0.9% NaCl into the upper right flank to form palpable tumors. The tumors were measured daily until the volume reached 10 mm3. The mice were divided into 4 groups and injected intraperitoneally in 0.15 ml 0.9% saline with: 1-80 mg/Kg ACN, 2-80 mg/Kg pimonidazole (Hypoxyprobe), 3-80 mg/Kg ACN:pimonidazole in a 1:1 ratio and 4-0.9% saline control. Mice were sacrificed 2 hours post-injection, tumors removed and frozen in OCT. Seven micron serial sections were taken of each tumor, dried and stored at −80° C.
Tissue sections were air dried for 25 minutes, fixed for 5 minutes in −20° C. acetone; air dried 25 minutes and blocked in PBS with 1% BSA for 20 minutes. Sections were incubated with primary antibodies for small vessel endothelium [1:100 rabbit anti-CD34 (abcam)] or hypoxia [1:100 rabbit anti-pimonidazole Hypoxyprobe)] for 2 hours at room temperature, followed by 3 five minute washes in 1×PBS. […]

[3] = tested on: FaDu cells; experiment: In vitro inverse oxygen dependent entrapment of ACN, click chemistry fluorescence; type: cell-based, human
Experimental: The Click-IT reaction cocktail (Molecular Probes) was made up according to the manufacturer's directions using a 1:5000 dilution of the 2 mg/ml Alexafluor 555 or 594 conjugated alkyne stock (Molecular Probes). The reaction cocktail was used within 15 minutes of preparation. All reactions were done at room temperature in the dark.
Subconfluent FaDu cells were trypsinized, and approximately 3-5×10^5 cells were seeded in 35 mm tissue culture plates containing sterilized […] glass coverslips. Cells were allowed to grow overnight, and treated with different concentrations of ACN (1 μM, 10 μM and 100 μM) under normoxia (20% Oxygen), hypoxia (1% Oxygen) or anoxia (0% Oxygen) for 6 hours. Hypoxia and anoxia were achieved using an in house de-gassing system. Post-treatment, all steps were carried out at room temperature. Cells were washed three to five times with 1×PBS, fixed in 2% paraformaldehyde (PFA) for 20 minutes, and washed again three times with 1×PBS. The fixed cells were then blocked and permeabilized with 1% BSA in 1×PBS containing 0.1% Triton-100 for 20 minutes, followed by incubation with click cocktail containing Alexafluor 594 conjugated alkyne for 30 minutes. Subsequently cells were washed and stained with Hoechst 33342 (1:10000 dilution in PBS, Life Technologies) for 5 minutes before mounting them on glass slides (Fluoroshield Mounting Medium, abcam). The prepared slides were kept at 4° C. until imaged. Images were obtained by with a Plan-Apochromat 40X/1.3 Oil DIC lens on a Zeiss 710 confocal microscope using Zen 2011 software.

[4] = tested on: FaDu cells; experiment: Retention profile of ACN in hypoxic cells following re-oxygenation; type: cell-based, human; settings: 100 μM
Experimental: After bioreductive activation under hypoxia, nitroimidazole reactive species (nitroradical anion) bind to cellular nucleophiles to form drug-protein adducts. To evaluate how fast these adducts are metabolized, we treated FaDu cells with 100 μM of ACN under normoxia or anoxia for 6 hours, and exposed them to subsequent re-oxygenation. Cells were fixed after 0 hr, 1 hr, 3 hr, 6 hr and 18 hr of re-oxygenation. Click chemistry was performed on fixed cells as previously described.

[5] = tested on: FaDu cells; experiment: Hypoxic cytotoxicity of ACN, colony formation assay; type: cell-based, human; settings: concentrations up to 100 μM, 24 h, normoxia (20% O2) or hypoxia (1% O2 and <0.1% O2)
Experimental: (§1) Human head and neck squamous cell carcinoma cell line, FaDu, was purchased from American Type Culture Collection (ATCC HTB-43). FaDu cells were cultured in Dulbecco's Modified Eagle's medium/Nutrient Mixture F-12 media supplemented with 10% Fetal bovine serum, 2 mM L-glutamine and 10% Penicillin Streptomycin. Cells were cultured in a humidified incubator at 37° C. with 5% CO2.
(§2) Hypoxic cytotoxicity of ACN was evaluated using colony formation assay. FaDu cells were seeded on 60 mm glass petri dishes (in triplicates) at a density of 300 cells per plate. Cells were allowed to attach for 24 hours, followed by treatment with 1 μM, 10 μM and 100 μM of freshly dissolved ACN for 24 hours under normoxia (20% O2) or hypoxia (1% O2 and <0.1% O2); 100 μM DMSO was used as vehicle control. Cells were allowed to grow and form colonies for 14 days. Colonies were stained with crystal violet, counted and plotted as percentage of vehicle conditions; error bars show standard error of the means. […] Colonies were stained with crystal violet, counted and plotted as percentage of vehicle (DMSO) controls; error bars represent standard error of the means. […] 1 hr following IR, cells were trypsinized, counted, and seeded on 24 well plates in triplicates at a density of 50,000 cells per well. Cells were trypsinized 1, 3, 5 and 7 days after re-plating, and counted with a Z2 coulter particle counter.

[6] = tested on: FaDu cells; experiment: Cell proliferation assay (cell counts); type: cell-based, human; settings: 100 μM, alone or in combination with 5 Gy IR
Experimental: as §1, §2

[7] = tested on: FaDu cells; experiment: Radiosensitization potential of ACN, colony formation assay with 5 Gy IR; type: cell-based, human; settings: 100 μM ACN and 5 Gy IR, normoxia or hypoxia (<0.1% O2)
Experimental: as §1, §2

## [N-]=[N+]=NCC1OC(n2ccnc2[N+](=O)[O-])[C@H](O)[C@H]1O (some centres unmarked) [ACN, 5’-azido-arabinofuranosyl-2-nitroimidazole]
[1]; 100 μM of each compound, 6 h
  staining detected by oxygen condition: detected in oxygen deprived cells
[1]; hypoxic <0.1% O2 cells, 100 μM
  sub-cellular distribution of signal: higher nuclear signal
[2]
  localization in tumor sections: co-localizes in hypoxic regions of FaDu xenograft tumors
[3]; 1, 10, 100 μM, 6 h, normoxia, hypoxia, <0.1% O2
  entrapment in cells versus oxygen level (click signal): entrapped in FaDu cells in an inverse oxygen dependent manner
[3]; 1-100 μM, hypoxic cells
  dose dependence of entrapment in hypoxic cells: dose dependent manner
[3]; normoxia (20% Oxygen)
  entrapment in well oxygenated or normoxic cells: minimal to almost no entrapment
[4]; 6 h anoxia then re-oxygenation
  time after re-oxygenation up to which signal for ACN-protein adducts could be detected: up to 6 hours
[4]; 18 hours re-oxygenation
  signal after 18 hours re-oxygenation: very faint signal
[5]
  hypoxia-selective cytotoxicity (colony formation): did not show any hypoxia-selective cytotoxicity
[6]
  cell counts compared to vehicle control: did not generate significant difference in cell counts
[7]
  hypoxic radiosensitization (colony formation): No hypoxic radiosensitization was observed
